In patent US20110152267A1, “Compositions and Methods for Treating Hyperproliferative Disorders” (Texas Tech University System, priority 2009, published 2011):

Tests used:
Assay type in all cases: cell-based, human
[1] = system: COG-LL-317 Acute Lymphoblastic Leukemia (ALL) cancer cell line; experiment: DIMSCAN cytotoxicity dose-response with fenretinide (Examples A, FIGS. 5, 11, 17); details: 5% oxygen, at one or more doses, +96 hrs
Description: Cytotoxicity Assay: Cytotoxicity in cell lines was determined using a fluorescence-based assay employing digital imaging microscopy (DIMSCAN)(after Fragala, et al, Mol Cancer Ther, 6:886-897, 2007). DIMSCAN quantitates viable cells which selectively accumulate fluorescein diacetate and is capable of measuring cytotoxicity over a 4-5 log dynamic range by quantifying total fluorescence per well (which is proportional to viable, clonogenic cells) after eliminating background fluorescence using digital thresholding and eosin Y quenching. Briefly, cell lines were seeded into 96-well plates in 100 µL of complete culture medium (10-20% serum) per well. Cells were incubated overnight in 2%, 5% or 20% oxygen (room air) prior to addition of drugs in […] volumes of complete medium to various final drug concentrations in replicates of 12 wells per concentration. In assays employing D-threo-PPMP, PPMP was employed at a fixed, minimally-toxic, final concentration of 10 μM in each well. Control wells received ethanol (final concentration=0.12%-0.20%) in complete medium equivalent to the maximum final ethanol concentration of drug-treated wells. Plates were incubated at various oxygen concentrations to simulate physiological hypoxia (i.e., 2% oxygen=typical solid tumor oxygen levels; 5%=bone marrow oxygen levels for leukemias; 20% room air=supraphysiological oxygen for comparison with typical laboratory culture conditions). Plates were assayed at 3-4 days after initiating drug exposure depending on the growth properties of each cell line, to allow for maximum cell death and outgrowth of surviving cells. To measure cytotoxicity, FDA (stock solution of 1 mg/ml in DMSO) was added, in 50 µL of complete medium per well, to a final concentration of 10 µg/ml. The plates were incubated for an additional 15-30 minutes at 37 C and then 30 µL of eosin Y (0.5% in normal saline) was added per well. Total fluorescence of each well was then measured using digital imaging microscopy. […]

[2] = system: HT-29 colon cancer cell line; experiment: DIMSCAN cytotoxicity dose-response with fenretinide, with or without D-threo-PPMP (Examples A, FIGS. 4, 10, 15, 21-23); details: +96 hrs; for C.I. (Combination Index) with fenretinide: at one or more doses; for C.I. of D-threo-PPMP with fenretinide+L-threo-sphinganine (three drug combination): 20% oxygen, D-threo-PPMP fixed 10 uM, at most doses
Description: (§1) Cytotoxicity Assay: Cytotoxicity in cell lines was determined using a fluorescence-based assay employing digital imaging microscopy (DIMSCAN)(after Fragala, et al, Mol Cancer Ther, 6:886-897, 2007). DIMSCAN quantitates viable cells which selectively accumulate fluorescein diacetate and is capable of measuring cytotoxicity over a 4-5 log dynamic range by quantifying total fluorescence per well (which is proportional to viable, clonogenic cells) after eliminating background fluorescence using digital thresholding and eosin Y quenching. Briefly, cell lines were seeded into 96-well plates in 100 µL of complete culture medium (10-20% serum) per well. Cells were incubated overnight in 2%, 5% or 20% oxygen (room air) prior to addition of drugs in […] volumes of complete medium to various final drug concentrations in replicates of 12 wells per concentration. In assays employing D-threo-PPMP, PPMP was employed at a fixed, minimally-toxic, final concentration of 10 μM in each well. Control wells received ethanol (final concentration=0.12%-0.20%) in complete medium equivalent to the maximum final ethanol concentration of drug-treated wells. Plates were incubated at various oxygen concentrations to simulate physiological hypoxia (i.e., 2% oxygen=typical solid tumor oxygen levels; 5%=bone marrow oxygen levels for leukemias; 20% room air=supraphysiological oxygen for comparison with typical laboratory culture conditions). Plates were assayed at 3-4 days after initiating drug exposure depending on the growth properties of each cell line, to allow for maximum cell death and outgrowth of surviving cells. To measure cytotoxicity, FDA (stock solution of 1 mg/ml in DMSO) was added, in 50 µL of complete medium per well, to a final concentration of 10 µg/ml. The plates were incubated for an additional 15-30 minutes at 37 C and then 30 µL of eosin Y (0.5% in normal saline) was added per well. Total fluorescence of each well was then measured using digital imaging microscopy.
(§2) FIGS. 1 to 26 illustrate the effect (Examples A1 through A26) of the claimed invention and were carried out using the procedures disclosed herein.

[3] = system: NCI-H-1792 lung adenocarcinoma cell line; experiment: DIMSCAN cytotoxicity, fenretinide + L-threo-sphinganines 3:1 (Example B12); details: 96 h
Description: (§3) Cytotoxicity Assay—Once again, cytotoxicity is determined using the DIMSCAN assay system (R. Proffitt et al., Cytometry 24, 204-213 (1996); T. Frgala et al., Mol Cancer Ther. 6:886-97, 2007). The system employs digital imaging microscopy to quantify viable cells, which selectively accumulate fluorescein diacetate to become brightly fluorescent. The system is capable of measuring cytotoxicity over a 4-5 log dynamic range by quenching the residual fluorescence of dead and dying cells with eosin Y and quantifying the total fluorescence of viable cells using digital thresholding. Measured fluorescence is directly proportionate to the number of viable cells. A comparison of the total fluorescence of a drug-treated cell population to the fluorescence of a similar number of untreated cells yields a survival fraction. In brief, 2000 to 10,000 cells/well (depending on size and growth rates) are replicate plated into 60 wells of a 96-well tissue culture plate in 0.1 mL of whole medium and allowed to attach overnight. Drug(s) are then added in 0.05 mL of whole medium to the final concentrations indicated. Drugs (fenretinide, and various chain length L-threo-sphinganines) were tested both as single agents and in a 3:1 ratio of fenretinide:sphinganine. C18-L-threo-sphinganine, or “safingol,” was also tested and results shown for reference. There are 12 wells treated per drug concentration. Twelve wells receive drug vehicle-only to the appropriate final concentration and serve as controls for the plate. Cells are incubated for 96 hours at 37° C. in ambient air with 5% CO2. Fluorescein diacetate is then added to each well in 0.05 mL media to a final concentration of 8 microgram/mL. Cells are incubated for a further 15 minutes at 37° C. and 0.03 mL of 0.5% eosin Y is added to each well. Total fluorescence of viable cells is then measured by digital imaging microscopy. Results were graphed as the ratio of the fluoresecence of drug-treated wells to non-drug treated control wells (i.e., Survival Fraction). All tests were performed at least twice. Representative results are shown.
(§4) The Combination Index (CI) is a term to describe mathematical modeling of the pharmacologic effects on cytotoxicity (cell death) of two drugs in combination based. Cytotoxic “synergy” is defined as a cell death affect which is greater than would be expected from a simple product of the single agent cytotoxicities alone (i.e. an “additive” effect). By Chou-Talalay analysis, a CI<0.9 on a Fraction Affected (“Fa”, i.e. fraction of cells killed) indicates synergy, with smaller numbers indicating greater synergy; a CI of 0.9-1.1 signifies an additive or near-additive effect; and a CI>1.1 means the drug combination is antagonistic.
Fenretinide and L-threo-sphinganines tested in human lung adenocarcinoma (lung cancer) cell line, NCI-H-1792.

[4] = system: GBM2 glioblastoma brain cancer cell line; experiment: DIMSCAN cytotoxicity dose-response with fenretinide, with or without D-threo-PPMP (Examples A, FIGS. 3, 9, 14, 18-20); details: +96 hrs; for C.I. of D-threo-PPMP with fenretinide+L-threo-sphinganine (three drug combination): 2% oxygen, D-threo-PPMP fixed 10 uM, at most doses; for C.I. (Combination Index) with fenretinide: at one or more doses
Description: as §1, §2

[5] = system: CHLA-266 primitive neuroectodermal tumor (PNET) cell line; experiment: DIMSCAN cytotoxicity, fenretinide + L-threo-sphinganines 3:1 (Example B9); details: 96 h
Description: as §3, §4
Fenretinide and L-threo-sphinganines tested in human primitive neuroectodermal tumor (PNET) (brain cancer) cell line, CHLA-266.

[6] = system: MDA-MB-231 breast adenocarcinoma cell line; experiment: DIMSCAN cytotoxicity, fenretinide + L-threo-sphinganines 3:1 (Example B14); details: MDA-MB-231, 20% O2, 96 h
Description: as §3, §4
(§5) Fenretinide and L-threo-sphinganines tested in human breast adenocarcinoma (breast cancer) cell lines, MCF-7 and MDA-MB-231.

[7] = system: MCF-7 breast adenocarcinoma cell line; experiment: as above; details: 96 h
Description: as §3, §4, §5

[8] = 4-HPR 1.5 μM + L-threo-sphinganine 0.5 μM
[9] = 4-HPR 3 μM + L-threo-sphinganine 1 μM
[10] = 4-HPR 6 μM + L-threo-sphinganine 2 μM
[11] = 4-HPR 9 μM + L-threo-sphinganine 3 μM

SMILES: CCCCCCCCCCCCCC[C@H](O)[C@@H](N)CO [C17, (2S,3S)-2-amino-1,3-heptadecanediol]
- C.I. (Combination Index) with fenretinide [1]: < 1
- C.I. (Combination Index) with fenretinide ([2]; 2% oxygen): < 1
- C.I. of D-threo-PPMP with fenretinide+L-threo-sphinganine (three drug combination) [2]: < 1
- CI (Combination Index) [3, 8]: 1.1
- Fa (fraction affected) [3, 8]: 0.112
- CI (Combination Index) [3, 9]: 1.0
- Fa (fraction affected) [3, 9]: 0.661
- CI (Combination Index) [3, 10]: 0.9
- Fa (fraction affected) [3, 10]: 0.974
- CI (Combination Index) [3, 11]: 1.0
- Fa (fraction affected) [3, 11]: 0.993
- C.I. of D-threo-PPMP with fenretinide+L-threo-sphinganine (three drug combination) [4]: < 1
- C.I. (Combination Index) with fenretinide [4]: < 1
- CI (Combination Index) [5, 8]: 0.5
- Fa (fraction affected) [5, 8]: 0.502
- CI (Combination Index) [5, 9]: 0.5
- Fa (fraction affected) [5, 9]: 0.913
- CI (Combination Index) [5, 10]: 0.5
- Fa (fraction affected) [5, 10]: 0.990
- CI (Combination Index) [5, 11]: 0.7
- Fa (fraction affected) [5, 11]: 0.989
- CI (Combination Index) [6, 8]: 1.3
- Fa (fraction affected) [6, 8]: 0.127
- CI (Combination Index) [6, 9]: 0.9
- Fa (fraction affected) [6, 9]: 0.265
- CI (Combination Index) [6, 10]: 0.8
- Fa (fraction affected) [6, 10]: 0.610
- CI (Combination Index) [6, 11]: 0.7
- Fa (fraction affected) [6, 11]: 0.948
- CI (Combination Index) [7, 8]: 1.3
- Fa (fraction affected) [7, 8]: 0.112
- CI (Combination Index) [7, 9]: 0.7
- Fa (fraction affected) [7, 9]: 0.661
- CI (Combination Index) [7, 10]: 0.4
- Fa (fraction affected) [7, 10]: 0.974
- CI (Combination Index) [7, 11]: 0.4
- Fa (fraction affected) [7, 11]: 0.993

SMILES: CCCCCCCCCCCCCCCC[C@H](O)[C@@H](N)CO [C19, (2S,3S)-2-amino-1,3-nonadecanediol]
- C.I. (Combination Index) with fenretinide [1]: < 1
- C.I. of D-threo-PPMP with fenretinide+L-threo-sphinganine (three drug combination) [2]: < 1
- C.I. (Combination Index) with fenretinide ([2]; oxygen not stated): < 1
- CI (Combination Index) [3, 8]: 1.1
- Fa (fraction affected) [3, 8]: 0.138
- CI (Combination Index) [3, 9]: 1.1
- Fa (fraction affected) [3, 9]: 0.736
- CI (Combination Index) [3, 10]: 1.2
- Fa (fraction affected) [3, 10]: 0.965
- CI (Combination Index) [3, 11]: 0.9
- Fa (fraction affected) [3, 11]: 0.993
- C.I. of D-threo-PPMP with fenretinide+L-threo-sphinganine (three drug combination) [4]: < 1
- C.I. (Combination Index) with fenretinide [4]: < 1
- CI (Combination Index) [6, 8]: 1.2
- Fa (fraction affected) [6, 8]: 0.078
- CI (Combination Index) [6, 9]: 1.2
- Fa (fraction affected) [6, 9]: 0.195
- CI (Combination Index) [6, 10]: 1.1
- Fa (fraction affected) [6, 10]: 0.503
- CI (Combination Index) [6, 11]: 0.7
- Fa (fraction affected) [6, 11]: 0.909
- CI (Combination Index) [7, 8]: 1.2
- Fa (fraction affected) [7, 8]: 0.138
- CI (Combination Index) [7, 9]: 0.8
- Fa (fraction affected) [7, 9]: 0.736
- CI (Combination Index) [7, 10]: 0.8
- Fa (fraction affected) [7, 10]: 0.965
- CI (Combination Index) [7, 11]: 0.9
- Fa (fraction affected) [7, 11]: 0.991
